What was measured:
AMPK α2β2γ1 (221) = target: T1, AMPK α2β2γ1 (221) (Homo sapiens, UniProt O43741+P54619+P54646); assay: AMPK in vitro activity assay (HTRF-KinEASE), β2-containing complex; assay type: biochemical; settings: fold activation vs complex without compound
T1 construct: His; made in house; host or cells: bacteria
Protocol: (§1) Lusianthridin (CAS 87530-30-1) was isolated from Thunia alba fruit. It was sourced from Analyticon (NP-012362). The plant was purchased through Analyticon's biomaterial supplier in 2003. The country of origin is Nepal. The AMPK heterotrimers were expressed in bacteria and purified through the His-α subunit by nickel purification. AMPK complexes were purified through gel filtration and phosphorylated by incubation with CaMKKβ, and further purified with a final gel filtration purification step. Phosphorylated purified AMPK was incubated with varying concentrations of ligand for 30 mins using substrate and reagents from the HTRF-KinEASE Cisbio assay kit (STK S1 Kit). Phosphorylation of the substrate was measured by incubating with donor and acceptor antibodies for 2 h at room temperature as per the manufacturer's protocol (and Coulerie et al., (2016) PMID: 27792327) and phosphorylated peptide detected by performing HTRF. The 665 nm/620 nm ratio was determined and the results are plotted as fold activation compared to the respective AMPK complex without any compound.

[1] = target: T2, AMPK α2β1γ1 R298G (211 R298G) mutant (Homo sapiens, UniProt P54619+P54646+Q9Y478, R299G); assay: AMPK in vitro activity assay (HTRF-KinEASE), γ1 R298G mutant; assay type: biochemical; settings: mutation in the γ1 AMP binding pocket
T2 construct: His; made in house; host or cells: bacteria
T2 sequence (P54646 whole entry): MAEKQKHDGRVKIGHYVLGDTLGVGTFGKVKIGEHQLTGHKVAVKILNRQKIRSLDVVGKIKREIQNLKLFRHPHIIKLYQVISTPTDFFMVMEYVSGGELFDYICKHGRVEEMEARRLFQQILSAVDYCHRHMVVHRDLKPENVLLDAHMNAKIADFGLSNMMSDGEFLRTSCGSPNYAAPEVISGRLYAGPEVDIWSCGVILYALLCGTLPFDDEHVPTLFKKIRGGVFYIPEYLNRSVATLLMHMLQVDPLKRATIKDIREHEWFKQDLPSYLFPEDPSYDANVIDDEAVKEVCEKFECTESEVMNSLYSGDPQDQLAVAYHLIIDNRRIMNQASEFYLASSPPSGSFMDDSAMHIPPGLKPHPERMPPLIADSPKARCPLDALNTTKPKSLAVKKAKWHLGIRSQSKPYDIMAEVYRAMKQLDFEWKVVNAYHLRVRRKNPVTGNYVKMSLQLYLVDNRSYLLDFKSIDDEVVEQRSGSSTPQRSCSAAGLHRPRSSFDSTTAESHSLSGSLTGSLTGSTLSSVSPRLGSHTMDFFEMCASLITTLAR
T2 sequence (Q9Y478 whole entry): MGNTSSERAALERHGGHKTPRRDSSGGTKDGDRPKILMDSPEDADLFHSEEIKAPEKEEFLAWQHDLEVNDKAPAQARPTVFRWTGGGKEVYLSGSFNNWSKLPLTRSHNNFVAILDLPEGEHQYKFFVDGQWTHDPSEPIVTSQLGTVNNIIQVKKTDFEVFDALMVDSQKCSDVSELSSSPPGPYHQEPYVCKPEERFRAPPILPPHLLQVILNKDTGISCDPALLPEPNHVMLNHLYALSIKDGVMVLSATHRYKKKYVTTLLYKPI
T2 sequence (P54619 whole entry R299G): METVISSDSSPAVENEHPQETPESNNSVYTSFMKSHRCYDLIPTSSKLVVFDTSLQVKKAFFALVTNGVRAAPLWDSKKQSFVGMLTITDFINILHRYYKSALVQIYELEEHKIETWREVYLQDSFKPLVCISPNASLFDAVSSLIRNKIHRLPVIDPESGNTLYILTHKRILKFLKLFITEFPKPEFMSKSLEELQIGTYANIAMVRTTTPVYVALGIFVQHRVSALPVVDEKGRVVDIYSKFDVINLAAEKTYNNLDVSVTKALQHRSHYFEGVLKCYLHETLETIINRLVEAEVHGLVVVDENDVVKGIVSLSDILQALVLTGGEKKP
Protocol: as §1

[2] = test system: AMPK α2β1γ1 ΔCBM mutant (211 ΔCBM); assay: AMPK in vitro activity assay (HTRF-KinEASE), ΔCBM mutant; assay type: biochemical; settings: carbohydrate-binding module deleted
Protocol: as §1

[3] = test system: AMPK substrate, acetyl-CoA carboxylase (ACC); assay: Western blot of pACC / total ACC in U2OS Flp-In T-REx lysates; assay type: cell-based; settings: varying concentrations
Protocol: U2OS Flp-In T-REx cells were seeded at 100 K in a 96-well plate and left overnight at 37 C in DMEM GlutaMAX (Thermo Fisher Scientific) supplemented with 10% (vol/vol) FBS and 100 U/ml penicillin G, and 100 μg/ml streptomycin. Cells were treated for 1 h with varying concentrations of Lusianthridin in media lacking FBS and then cells were lysed in 50 μl of Cisbio lysis buffer #1 supplemented with blocking solution as per the manufacturer's protocol (Cisbio). Cells were lysed for 30 mins at room temperature before 16 μl of lysate was incubated with 4 μl of the HTRF antibodies (1:40 dilution of the acceptor and donor (p)ACC antibodies, as per the manufacturers protocol). Lysates were incubated overnight with the antibodies before 665 nm/620 nm ratio was determined using a MolecularDevices i3 plate reader (with a HTRF cartridge add-on). For western blot analysis, SDS-sample buffer was added to the remainder of the lysate, denatured at 95 C and then subjected to western blot analysis with phospho-specific and total ACC antibodies (Cell Signalling). Bands were visualized by incubating with Li-Cor secondary antibody and scanned on a Li-Cor Odyssey machine.

primary hepatocytes = assay: Lipogenesis ([1-14C]-acetate incorporation into fatty acids) in primary hepatocytes; assay type: cell-based, mouse; settings: 1 h at 37 C, varying concentrations
Protocol: Hepatocyte isolation: The liver was first perfused with 50 ml perfusion buffer (Krebs-Hepes buffer with […] EDTA), followed with 50 ml collagenase A buffer (Krebs-Hepes buffer with 5 mM CaCl2 and 0.5 mg/ml collagenase). […] Hepatocytes were left to attach (3-4 h) and cultured overnight in M199 supplemented with antibiotics and 100 nM dexamethasone. Cells were used for experiments the following morning. For primary hepatocyte isolation see Example 4. For lipogenesis measurements in primary hepatocytes, cells were seeded at 600 K cells per well in a 6-well plate overnight. Media was replaced with fresh M199 media alone for 2 hours prior to incubation with varying concentrations of Lusianthridin for 1 h at 37 C, in the presence of [1-^14C]-acetate. The incorporation of [^14C] into fatty acids was determined in the lower organic layer after separation from the aqueous phase. […] Lipogenesis is controlled by the AMPK substrate ACC, and phosphorylation and inhibition of ACC by AMPK, leads to a decrease in lipogenesis. Lipogenesis was measured in primary hepatocytes by determining the incorporation of ^14C-labelled acetate into fatty acids. Lipogenesis was monitored in the presence or absence of varying concentrations of Lusianthridin for 1 h at 37 C. […] This observation is consistent with its ability to activate AMPK in hepatocytes, which leads to the phosphorylation and inhibition of ACC.

C2C12 AMPKα1α2+/+ cells = assay: Glucose uptake (3H-2-deoxyglucose) in differentiated C2C12 AMPKα1α2+/+ cells; assay type: cell-based, murine
Excerpt: (§2) C2C12 AMPK α1α2 double knockout cell lines were generated by transient transfection of wild type cells with plasmids containing Cas9 enzyme linked to green fluorescent protein expression and Cas9 guide RNA sequences targeting the murine AMPK α1 subunit (sc-430618, SantaCruz) and the murine AMPK α2 subunit (sc-430803, SantaCruz). Cells positive for green fluorescent protein expression were single cell sorted by flow cytometry into 96-well plates containing growth medium and analysed for loss of AMPK signaling following expansion of the clones.
(§3) Differentiated C2C12 AMPKα1α2+/+ and AMPKα1α2−/− cells were treated with either vehicle (0.2% DMSO), 30 μM or 100 μM Lusianthridin for 1 h at 37° C. […] Finally, differentiated C2C12 AMPKα1α2+/+ and AMPKα1α2−/− cells were treated with either vehicle (0.2% DMSO) or 100 μM Lusianthridin in the presence or absence of 15 nM Wortmanin for 1 h at 37° C. For the Wortmanin experiments, differentiated C2C12 cells were pre-incubated with DMSO or Wortmanin for 1 h prior to treatment.
(§4) Glucose uptake was determined by monitoring the uptake of 3H-2-deoxyglucose into cells. C2C12 AMPKα1α2+/+ and AMPKα1α2−/− cells were maintained in DMEM GlutaMAX supplemented with 20% (vol/vol) FBS and 100 U/ml penicillin G, and 100 μg/ml streptomycin. […] Cells were lysed and the quantity of ^3H determined in these samples using a scintillation counter.

C2C12 AMPKα1α2−/− cells = assay: Glucose uptake (3H-2-deoxyglucose) in differentiated C2C12 AMPKα1α2−/− cells; assay type: cell-based, murine; settings: 30 or 100 μM Lusianthridin, 300 nM Insulin, 1 h at 37° C
Excerpt: as §2, §3, §4

T1 sequence (P54646 whole entry): as the sequence (P54646 whole entry) above
T1 sequence (O43741 whole entry): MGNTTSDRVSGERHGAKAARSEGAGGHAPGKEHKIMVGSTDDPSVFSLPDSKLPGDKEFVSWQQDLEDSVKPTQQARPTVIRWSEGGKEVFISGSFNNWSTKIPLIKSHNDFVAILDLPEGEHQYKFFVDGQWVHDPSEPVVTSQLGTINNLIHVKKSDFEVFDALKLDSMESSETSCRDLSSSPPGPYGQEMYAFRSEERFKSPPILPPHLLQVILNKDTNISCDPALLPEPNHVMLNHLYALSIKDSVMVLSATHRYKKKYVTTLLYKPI
T1 sequence (P54619 whole entry): as the sequence (P54619 whole entry R299G) above, with G299R counted along it

activation of β2-containing AMPK complexes (α2β2γ1) (AMPK α2β2γ1 (221)): does not activate
activation of AMPK α2β1γ1 γ1 R298G mutant complexes [1]: still activates
Structure (SMILES): COc1cc(O)c2c(c1)CCc1cc(O)ccc1-2 [Lusianthridin, 7-Methoxy-9,10-dihydrophenanthrene-2,5-diol]
activation of α2β1γ1 ΔCBM mutant [2]: does not activate
phosphorylation of ACC by western blot (AMPK activation in cells) [3]: activates AMPK in cells
rate of lipogenesis (DPM per μg of protein) (primary hepatocytes): inhibit lipogenesis in a dose-dependent manner
glucose uptake (fold change relative to control) (C2C12 AMPKα1α2+/+ cells; C2C12 AMPKα1α2+/+, 30 or 100 μM Lusianthridin, 300 nM Insulin, 1 h at 37° C): increase in glucose uptake
effect of Wortmanin on stimulated glucose uptake (C2C12 AMPKα1α2+/+ cells; in the presence of 15 nM Wortmanin (1 h pre-incubation), 100 μM Lusianthridin or 300 nM Insulin, 1 h): no effect
glucose uptake (fold change relative to control) (C2C12 AMPKα1α2−/− cells): abolished
